Measurements reported in PubChem BioAssay AID1996.
In brackets after ≈: the same amount, converted by molar mass.

conditions: buffer; pH 7.4; 200.0 µM

Row | SMILES | solubility kinetic [µg/mL]
1 | O=C(Nc1cccc(Cl)c1)c1cc(-c2ccco2)on1 | 0.8 (≈ 2.77 µM)
2 | CCCn1c(SCC(=O)N2CCc3ccccc3C2)nc(O)cc1=O | > 53.9
3 | Cc1ccc(C)n1-c1ccc(C(=O)/C=C/N(C)C)cc1 | 25.6 (≈ 95.4 µM)
4 | O=C(CCC1CCCCC1)NCCN1CCOCC1 | > 40.3
5 | Nc1nc(Cl)cc(Oc2ccc(Cl)cc2)n1 | 1 (≈ 3.9 µM)
6 | C=CCN1CCN(C(=O)c2oc3ccccc3c2C)CC1 | > 42.7
7 | O=C(COC(=O)CCc1ccccc1)NCc1ccccc1 | > 44.6
8 | O=C(Cc1ccsc1)Nc1ccccc1F | > 35.3
9 | O=c1cc(O)c2sc(Nc3cccc(C(F)(F)F)c3)nc2[nH]1 | 36.9 (≈ 113 µM)
10 | Cc1ccc(CN(C)C(=O)c2cccc(S(=O)(=O)N3CCc4ccccc43)c2)cc1 | 5.8 (≈ 13.8 µM)
11 | CCCC(=O)OCC(=O)NC1CCCc2ccccc21 (stereo unspecified) | > 41.3
12 | CC(=O)c1ccc(OCC(C)Oc2ccc(C#N)cc2)cc1 (stereo unspecified) | 23.3 (≈ 78.9 µM)
13 | FC(F)(F)c1cnc(COc2ccc(Cl)cc2Cl)c(Cl)c1 | < 0.8
14 | Cl.O=C(NC(=S)N1CCN(c2ccccc2)CC1)c1ccco1 | > 52.8
15 | O=C1C(=O)N(Cc2cccs2)c2ccccc21 | > 36.5
16 | O=C(O)CCCCCNC(=O)/C(=C\c1ccco1)NC(=O)c1ccco1 | 44.3 (≈ 123 µM)
17 | O=C(COC(=O)c1ccccc1Cl)NC1CCCCCC1 | 29.5 (≈ 95.2 µM)
18 | O=C(C1COc2ccccc2O1)N1CCN(c2ccc([N+](=O)[O-])cc2)CC1 (stereo unspecified) | 7.7 (≈ 20.8 µM)
19 | CCCCOc1ccc(C(=O)Nc2ccc(CN3CCOCC3)cc2)cc1 | 1.1 (≈ 2.99 µM)
20 | O=C(NCc1ccco1)/C(=C\C=C\c1ccccc1)NC(=O)c1ccco1 | > 54.4
21 | O=C(NCc1ccc(F)cc1)c1cccnc1 | > 34.5

Row | SMILES | solubility kinetic [µg/mL]
22 | CCOC(=O)C1(CC2CC2)CCN(Cc2cnc(N(C)C)s2)CC1 | 46.1 (≈ 131 µM)
23 | COC(=O)CCC(=O)c1ccn(S(=O)(=O)c2ccccc2)c1 | 44.6 (≈ 139 µM)
24 | CC(C)CNC(=O)C(=O)NCC1OCCCN1S(=O)(=O)c1cccs1 (stereo unspecified) | > 58.4
25 | O=C1Nc2ccccc2N2CCCC12 (stereo unspecified) | 27.5 (≈ 146 µM)
26 | CCc1ccc(CN2C(=O)c3ccccc3C2C(=O)NC(C)CC)cc1 (stereo unspecified) | 5.3 (≈ 15.1 µM)
27 | CSc1ccccc1C(=O)NC(C)c1ccc(-n2ccnc2)cc1 (stereo unspecified) | > 50.6
28 | COC(=O)CSc1nnc(CNC(=O)c2ccc(OC)c(OC)c2)n1C | > 57.1
29 | COC(=O)c1ccc(S(=O)(=O)NCCc2ccccc2OC)n1C | 23 (≈ 65.3 µM)
30 | O=C(CN1C(=O)NC2(CCOc3ccccc32)C1=O)NCc1ccccc1 (stereo unspecified) | > 54.8
31 | COc1ccc(S(=O)(=O)N(C)C)cc1NC(=O)COC(=O)C1CC1 | > 53.5
32 | Cc1ccc(CN2CCS(=O)(=O)CC2)o1 | > 34.4
33 | COc1cc2nc(-c3ccccc3C)oc(=O)c2cc1OC | < 0.6
34 | O=C(CSc1nccc(=O)[nH]1)Nc1cccc2ccccc12 | > 46.7
35 | Cn1c(-c2cccs2)nc2ccccc21 | 30.4 (≈ 142 µM)
36 | Nc1nc(-c2ccccc2)c(C(=O)Nc2ccccc2)s1 | 9.4 (≈ 31.8 µM)
37 | NC(=O)c1oc2ccccc2c1NC(=O)c1ccc([N+](=O)[O-])o1 | 1.8 (≈ 5.71 µM)
38 | CCc1cccc(NC(=O)C2CCCN(c3cnccn3)C2)c1 (stereo unspecified) | > 46.6
39 | O=C(COc1ccccc1Cl)NCCCNC(=O)c1cccnc1 | > 52.2
40 | CCCSCCCNC(=O)Cn1c(=O)c2cccn2c2ccccc21 | 7.7 (≈ 21.5 µM)
41 | CCOC(=O)c1cc(NC(=O)c2cccnc2)ccc1N1CCOCC1 | > 53.3
42 | O=C(c1cccc(C(F)(F)F)c1)N1CCOc2ccccc21 | 37.5 (≈ 122 µM)

Row | SMILES | solubility kinetic [µg/mL]
43 | Cl.N=c1ccn(Cc2ccc([N+](=O)[O-])cc2)cc1 | > 39.9
44 | CCCCn1c(SCC(=O)Nc2cc(C)on2)nnc1-c1ccncc1 | > 55.9
45 | Cc1cc(NC(=O)CN2CCN(C)CC2)no1 | 22.4 (≈ 94 µM)
46 | COC1=C(N2CCOCC2)C(=O)c2ccccc2C1=O | > 41
47 | CC(=O)Nc1ccc(C(=S)NCCCO)cc1 | > 37.8
48 | COc1ccc(Nc2cc(Nc3ccccc3)ncn2)cc1 | < 0.2
49 | CC(NCc1cccnc1)c1ccccc1 (stereo unspecified) | > 31.8
50 | CCc1ccc2c(c1)C(O)(CC(=O)c1cccs1)C(=O)N2 (stereo unspecified) | > 45.2
51 | CC(C)CNC(=O)CC1Nc2ccccc2NC1=O (stereo unspecified) | 38.8 (≈ 148 µM)
52 | FC(F)(F)Oc1ccc(-c2cn3cccnc3n2)cc1 | 8.5 (≈ 30.4 µM)
53 | CCc1cccc(NC(=O)C2CC2c2ccccc2)c1 (stereo unspecified) | 0.7 (≈ 2.64 µM)
54 | CCOC(=O)CSc1nc(C(C)(C)C)nc2ccccc12 | 0.7 (≈ 2.3 µM)
55 | COC(=O)c1sccc1NC(=O)Nc1cc(C)cc(C)c1 | 2.7 (≈ 8.87 µM)
56 | O=C(Nc1cc([N+](=O)[O-])ccc1N1CCCC1)c1ccco1 | 40.9 (≈ 136 µM)
57 | O=c1c2cc(Cl)cc(Cl)c2nc2n1CCC2 | 35 (≈ 137 µM)
58 | CCOC(=O)C1CCCN(c2c(NCCc3ccccc3)c(=O)c2=O)C1 (stereo unspecified) | 25.5 (≈ 71.5 µM)
59 | OCCNCC(O)CN1c2ccccc2Sc2ccccc21 (stereo unspecified) | > 47.5
60 | Cc1ccc(C)c(C(C)NC(=O)Cc2cccs2)c1 (stereo unspecified) | > 41
61 | c1cc2c3c(cccc3c1)C(N1CCOCC1)=N2 | 34.8 (≈ 146 µM)
